Source: ChEMBL document CHEMBL5108047 (J Med Chem, 2022)

What was measured:
DNA polymerase theta [1] = target: T1, DNA polymerase theta (Homo sapiens, UniProt O75417); experiment: Inhibition of N-terminal His8-tagged/C-terminal FLAG-tagged full length human DNA polymerase theta ( 1 to 2590 residues) polymerase activity expressed in HEK2936E cells; format: cell-based
[2] = Toxicity in CD-1 mouse xenografted with BRCA2 knock out human HCT-116 cells assessed as drug tolerance at 80 mg/kg, po administered twice a day for 21 days; format: organism-based; conditions: in vivo, 504 h, time 21 day
[3] = Oral bioavailability in CD-1 mouse at […] measured upto 24 hrs by reverse phase LCMS analysis; format: ADME, organism-based; conditions: in vivo
[4] = target: T2, DNA polymerase alpha catalytic subunit (Homo sapiens, UniProt P09884); experiment: Inhibition of human DNA polymerase alpha
T2 sequence (P09884 whole entry): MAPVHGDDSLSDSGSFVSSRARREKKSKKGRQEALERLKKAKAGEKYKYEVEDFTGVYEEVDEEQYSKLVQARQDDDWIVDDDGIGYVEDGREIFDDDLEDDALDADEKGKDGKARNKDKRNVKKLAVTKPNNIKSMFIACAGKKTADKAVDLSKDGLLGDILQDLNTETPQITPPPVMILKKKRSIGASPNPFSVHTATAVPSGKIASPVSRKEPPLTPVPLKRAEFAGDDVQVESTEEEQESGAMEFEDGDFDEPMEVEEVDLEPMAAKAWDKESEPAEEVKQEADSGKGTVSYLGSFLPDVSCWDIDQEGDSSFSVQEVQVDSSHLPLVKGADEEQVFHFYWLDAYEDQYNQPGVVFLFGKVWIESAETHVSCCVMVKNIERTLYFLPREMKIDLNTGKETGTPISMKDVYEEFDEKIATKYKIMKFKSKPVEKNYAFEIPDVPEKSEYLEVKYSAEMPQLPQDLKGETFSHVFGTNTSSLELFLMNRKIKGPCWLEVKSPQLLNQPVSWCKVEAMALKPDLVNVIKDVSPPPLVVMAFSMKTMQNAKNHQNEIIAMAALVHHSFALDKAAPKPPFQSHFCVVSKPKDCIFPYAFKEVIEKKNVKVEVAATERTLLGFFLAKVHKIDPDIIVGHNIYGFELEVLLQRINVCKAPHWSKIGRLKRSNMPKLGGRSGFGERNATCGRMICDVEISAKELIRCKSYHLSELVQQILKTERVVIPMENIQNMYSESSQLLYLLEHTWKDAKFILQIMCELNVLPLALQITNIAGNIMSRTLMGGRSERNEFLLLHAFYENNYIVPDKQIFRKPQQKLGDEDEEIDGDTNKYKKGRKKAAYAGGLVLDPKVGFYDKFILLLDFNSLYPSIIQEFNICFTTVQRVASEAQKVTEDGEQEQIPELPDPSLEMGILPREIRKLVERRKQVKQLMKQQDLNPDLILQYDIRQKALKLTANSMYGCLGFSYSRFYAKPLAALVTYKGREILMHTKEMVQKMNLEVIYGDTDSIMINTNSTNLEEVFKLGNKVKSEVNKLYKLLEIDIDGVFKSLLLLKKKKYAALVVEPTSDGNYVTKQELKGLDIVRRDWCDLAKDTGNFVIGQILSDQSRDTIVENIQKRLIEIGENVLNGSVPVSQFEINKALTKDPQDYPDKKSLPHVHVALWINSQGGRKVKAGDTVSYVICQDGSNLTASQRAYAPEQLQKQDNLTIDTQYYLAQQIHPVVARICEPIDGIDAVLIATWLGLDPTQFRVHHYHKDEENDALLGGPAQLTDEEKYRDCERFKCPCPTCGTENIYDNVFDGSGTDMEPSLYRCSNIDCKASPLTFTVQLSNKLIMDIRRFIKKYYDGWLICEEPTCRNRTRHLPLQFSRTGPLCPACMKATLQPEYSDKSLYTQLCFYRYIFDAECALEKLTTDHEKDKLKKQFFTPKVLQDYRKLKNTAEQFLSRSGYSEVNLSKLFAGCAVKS

HCT-116 [5] = experiment: Antiproliferative activity against BRCA2 knock in human HCT-116 cells assessed as inhibition of cell growth incubated for 7 days with media replacement for every 3 or 4 days; format: functional, cell-based
[6] = Half-life in CD-1 mouse at 2.5 mg/kg, po or 2.5 mg/kg, iv measured upto 24 hrs by reverse phase LCMS analysis; format: ADME, organism-based; conditions: in vivo
[7] = Inhibition of Alt-Ej-mediated DNA repair in LIG4 knock out HEK293T cells; format: functional, cell-based, Homo sapiens; conditions: hek-293t
[8] = AUC in CD-1 nude mouse at 80 mg/kg, po administered twice daily and measured on day 7 by HPLC-MS analysis; format: ADME, organism-based; parameters: time 7 day, dose 80 mg/kg, route po; conditions: in vivo
[9] = fCaverage in CD-1 mouse; format: ADME
DNA polymerase theta [10] = target: T1, DNA polymerase theta; experiment: Inhibition of human DNA polymerase theta pol domain (1819 to 2590 residues) expressed in Escherichia coli BL21 (DE3) cells preincubated for 15 mins followed by DNA and dNTP addition and measured after 120 mins by Picogreen dye fluorescence intensity analysis
[11] = Toxicity in CD-1 mouse xenografted with BRCA2 knock out human HCT-116 cells assessed as body weight loss at 80 mg/kg, po administered twice a day for 21 days; format: organism-based; conditions: in vivo, 504 h, time 21 day
[12] = AUC in CD-1 nude mouse at 80 mg/kg, po administered twice daily and measured on day 1 by HPLC-MS analysis; format: ADME, organism-based; parameters: dose 80 mg/kg, time 1 day, route po; conditions: in vivo
[13] = Toxicity in CD-1 mouse xenografted with BRCA2 knock in human HCT-116 cells assessed as body weight loss at 80 mg/kg, po administered twice a day for 21 days; format: organism-based; conditions: in vivo, 504 h, time 21 day
HCT-116 [14] = experiment: Antiproliferative activity against BRCA2 knock out human HCT-116 cells assessed as inhibition of cell growth incubated for 12 to 14 days with media replacement for every 3 or 4 days; format: functional, cell-based
[15] = Toxicity in CD-1 mouse xenografted with BRCA2 knock in human HCT-116 cells assessed as drug tolerance at 80 mg/kg, po administered twice a day for 21 days; format: organism-based; conditions: in vivo, 504 h, time 21 day
[16] = Volume of distribution at steady state in CD-1 mouse at 2.5 mg/kg, po or 2.5 mg/kg, iv measured upto 24 hrs by reverse phase LCMS analysis; format: ADME, organism-based; conditions: in vivo

T1 sequence (O75417 whole entry, the tested form may be a part): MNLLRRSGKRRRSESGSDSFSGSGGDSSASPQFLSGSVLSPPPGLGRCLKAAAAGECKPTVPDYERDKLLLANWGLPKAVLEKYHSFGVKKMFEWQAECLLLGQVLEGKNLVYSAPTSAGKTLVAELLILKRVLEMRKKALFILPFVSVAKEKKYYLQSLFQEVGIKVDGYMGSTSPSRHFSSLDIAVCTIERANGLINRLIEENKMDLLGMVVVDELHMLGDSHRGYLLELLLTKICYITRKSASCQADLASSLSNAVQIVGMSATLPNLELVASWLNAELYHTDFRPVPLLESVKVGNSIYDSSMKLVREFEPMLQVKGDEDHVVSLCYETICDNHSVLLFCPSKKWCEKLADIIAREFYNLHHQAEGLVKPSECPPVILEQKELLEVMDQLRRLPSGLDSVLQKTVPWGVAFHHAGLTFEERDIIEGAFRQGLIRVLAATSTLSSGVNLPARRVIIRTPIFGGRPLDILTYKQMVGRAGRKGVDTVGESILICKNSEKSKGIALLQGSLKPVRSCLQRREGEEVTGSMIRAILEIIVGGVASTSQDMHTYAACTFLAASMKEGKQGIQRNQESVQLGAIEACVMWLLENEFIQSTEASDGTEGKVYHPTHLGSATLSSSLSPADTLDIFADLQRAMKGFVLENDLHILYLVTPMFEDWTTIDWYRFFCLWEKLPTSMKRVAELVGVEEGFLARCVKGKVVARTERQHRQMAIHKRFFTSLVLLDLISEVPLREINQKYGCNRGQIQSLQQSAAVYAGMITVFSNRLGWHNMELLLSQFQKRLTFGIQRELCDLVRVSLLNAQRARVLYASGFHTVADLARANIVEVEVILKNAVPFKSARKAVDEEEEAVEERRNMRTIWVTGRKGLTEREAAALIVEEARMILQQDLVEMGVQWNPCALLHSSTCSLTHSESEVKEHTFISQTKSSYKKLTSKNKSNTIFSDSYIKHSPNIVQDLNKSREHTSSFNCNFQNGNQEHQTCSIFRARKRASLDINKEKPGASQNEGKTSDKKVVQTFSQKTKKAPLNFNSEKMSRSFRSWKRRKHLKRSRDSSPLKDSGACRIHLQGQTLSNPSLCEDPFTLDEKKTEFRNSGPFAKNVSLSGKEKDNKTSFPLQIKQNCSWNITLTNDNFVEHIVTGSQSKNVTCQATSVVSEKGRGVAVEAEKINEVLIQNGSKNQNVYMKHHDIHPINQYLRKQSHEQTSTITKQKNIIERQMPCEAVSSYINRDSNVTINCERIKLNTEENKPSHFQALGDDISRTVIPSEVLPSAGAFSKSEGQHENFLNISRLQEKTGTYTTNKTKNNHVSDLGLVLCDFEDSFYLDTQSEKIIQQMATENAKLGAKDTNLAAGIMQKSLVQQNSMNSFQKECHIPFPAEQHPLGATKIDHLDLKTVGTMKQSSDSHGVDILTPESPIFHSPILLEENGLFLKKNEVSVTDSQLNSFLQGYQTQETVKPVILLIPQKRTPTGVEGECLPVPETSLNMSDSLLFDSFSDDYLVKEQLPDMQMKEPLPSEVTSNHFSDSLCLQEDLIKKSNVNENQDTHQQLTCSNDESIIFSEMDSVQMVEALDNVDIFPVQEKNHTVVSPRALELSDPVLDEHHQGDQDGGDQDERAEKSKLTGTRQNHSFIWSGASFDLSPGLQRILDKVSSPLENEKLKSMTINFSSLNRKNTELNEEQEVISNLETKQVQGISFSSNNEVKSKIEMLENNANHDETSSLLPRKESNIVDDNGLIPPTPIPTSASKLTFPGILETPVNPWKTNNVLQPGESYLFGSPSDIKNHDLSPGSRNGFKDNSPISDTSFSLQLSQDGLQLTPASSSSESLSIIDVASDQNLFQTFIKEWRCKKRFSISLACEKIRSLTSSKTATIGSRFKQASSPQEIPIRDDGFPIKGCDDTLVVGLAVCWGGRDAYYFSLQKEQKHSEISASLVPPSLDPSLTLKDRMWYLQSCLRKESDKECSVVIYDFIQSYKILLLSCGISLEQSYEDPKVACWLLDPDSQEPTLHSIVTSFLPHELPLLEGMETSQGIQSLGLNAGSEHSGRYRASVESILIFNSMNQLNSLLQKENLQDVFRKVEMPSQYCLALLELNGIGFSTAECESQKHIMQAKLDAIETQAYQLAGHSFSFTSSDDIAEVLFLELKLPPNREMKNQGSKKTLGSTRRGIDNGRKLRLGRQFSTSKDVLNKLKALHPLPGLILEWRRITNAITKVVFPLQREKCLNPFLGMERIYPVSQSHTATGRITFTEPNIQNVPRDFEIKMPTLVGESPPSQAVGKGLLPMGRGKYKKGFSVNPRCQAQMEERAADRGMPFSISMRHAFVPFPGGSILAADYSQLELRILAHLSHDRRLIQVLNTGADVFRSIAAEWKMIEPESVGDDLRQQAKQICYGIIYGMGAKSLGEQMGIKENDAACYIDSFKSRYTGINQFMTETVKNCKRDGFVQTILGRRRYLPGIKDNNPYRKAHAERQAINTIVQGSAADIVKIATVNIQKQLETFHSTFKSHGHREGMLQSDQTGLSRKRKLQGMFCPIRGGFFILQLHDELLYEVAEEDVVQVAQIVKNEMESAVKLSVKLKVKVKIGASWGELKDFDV

Nc1ccc(C#CCN(C(=O)Cc2ncc(C(F)(F)F)cc2C(F)(F)F)c2ccc(F)cc2)nn1
IC50 (DNA polymerase theta [1]): 0.55 nM | Activity [2]: Non-Toxic | bioavailability [3]: 66% | IC50 [4]: > 100000 nM | IC50 (HCT-116 [5]): > 15000 nM | t1/2 [6]: 24 min | IC50 [7]: 2150 nM | AUC at 168 h [8]: 14.7 µM·h | f(Cave) [9]: 107 nM | IC50 (DNA polymerase theta [10]): 5.8 nM | Activity [11]: Non-Toxic | AUC at 24 h [12]: 32.6 µM·h | Activity [13]: Non-Toxic | IC50 (HCT-116 [14]): 320 nM | Activity [15]: Non-Toxic | Vdss [16]: 1.1 L/kg
